The values below come from patent publication US7829728B2, “Diarymethyl and related compounds” (Theravance, Inc., priority 2003, dated 2010).

The experiment deals with human β2 adrenergic receptor (Homo sapiens, UniProt P07550). Description: Radioligand binding assay for human β2 adrenergic receptor (Assay Test Procedure A). Details: expressed in transfected cells; host or cells: CHO cells, membranes. The note with it: receptor subtype selectivity, human β1 versus β2. The procedure: Chinese hamster ovarian (CHO) cell lines stably expressing cloned human β1, β2 or β3 adrenergic receptors, respectively, were grown to near con fluency in Hams F-12 media with 10% FBS in the presence of 500 μg/mL Geneticin. The cell monolayer was lifted with 2 mM EDTA in PBS. Cells were pelleted by centrifugation at 1,000 rpm, and cell pellets were either stored frozen at −80° C. or membranes were prepared immediately for use. For preparation of β1 and β2 receptor expressing membranes, cell pellets were re-suspended in lysis buffer (10 mM HEPES/HCl, 10 mM EDTA, pH 7.4 at 4° C.) and homogenized using a tight-fitting Dounce glass homogenizer (30 strokes) on ice. […] The protein concentration of the membrane suspension was determined by the methods described in Lowry et al., 1951, Journal of Biological Chemistry, 193, 265; and Bradford, Analytical Biochemistry, 1976, 72, 248-54. […]
Chain of human β2 adrenergic receptor (P07550 whole entry): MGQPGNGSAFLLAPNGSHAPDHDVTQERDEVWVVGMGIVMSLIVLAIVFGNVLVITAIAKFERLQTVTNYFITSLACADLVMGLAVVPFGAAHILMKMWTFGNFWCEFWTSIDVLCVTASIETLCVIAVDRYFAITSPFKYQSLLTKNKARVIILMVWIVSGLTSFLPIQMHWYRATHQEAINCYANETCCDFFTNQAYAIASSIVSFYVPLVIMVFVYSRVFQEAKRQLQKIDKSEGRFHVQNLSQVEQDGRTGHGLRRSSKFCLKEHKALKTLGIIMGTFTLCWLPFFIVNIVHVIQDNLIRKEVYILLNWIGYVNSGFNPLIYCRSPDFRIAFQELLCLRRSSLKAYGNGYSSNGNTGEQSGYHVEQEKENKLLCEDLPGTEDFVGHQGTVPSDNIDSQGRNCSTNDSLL
Binding assays were performed in 96-well microtiter plates in a total assay volume of 100 μL with 10-15 μg of membrane protein containing the human β1, β2 or β3 adrenergic receptors in assay buffer (75 mM Tris/HCl pH 7.4 at 25° C., 12.5 mM MgCl2, 1 mM EDTA, 0.2% BSA). […] Non-specific binding was determined in the presence of 10 μM propranolol. […] Filter plates were washed three times with filtration buffer (75 mM Tris/HCl pH 7.4 at 4° C., 12.5 mM MgCl2, 1 mM EDTA) to remove unbound radioactivity. […]

Regarding `NC(=O)C(c1ccccc1)(c1ccccc1)[C@@H]1CCN(CCCCCCCCCNCC(O)c2ccc(O)c3[nH]c(=O)ccc23)C1` (mixture of isomers) [Example 1, 2-((S)-1-{9-[2-Hydroxy-2-(8-hydroxy-2-oxo-1,2-dihydroquinolin-5-yl)ethylamino]-nonyl}pyrrolidin-3-yl)-2,2-diphenylacetamide], the “ratio of Ki(β1)/Ki(β2)” value is “greater than 8”.
